Results taken from patent US10485814B2, “Nicotinamide riboside analogs and pharmaceutical compositions and uses thereof” (GlaxoSmithKline Intellectual Property (No. 2) Limited, priority 2014, dated 2019).

Experiments:
[1] = test system: Human dermal fibroblasts; assay: TNFα-induced gene expression in dermal fibroblasts (QPCR); format: cell-based; conditions: TNFα 10 ng/ml, 30 hr
Description: Human dermal fibroblasts were grown in regular culture media as described in example 23 above and seeded in 12-well plates at 2×10^5 cells per well for overnight. Cells were then replenished with fresh medium and treated with TNFα (10 ng/ml) with and without NRH (200 μM) for 30 hr. At the end of the incubation, cells were washed once with HBSS with Ca^2+ and Mg^2+ (Life Technologies), and subject to RNA isolation and QPCR analyses.

[2] = test system: HaCaT cells (a human keratinocyte cell line); assay: Intracellular NAD measurement in HaCaT cells (ADPR cyclase enzymatic assay, absorbance 405 nm); format: cell-based
Description: HaCaT cells (AddexBio Technologies, San Diego, Calif., Passage 16-19) were grown in Medium DMEM/GlutMax (Life technologies, Grand Island, N.Y.) supplemented with 10% FBS (Life technologies) and Non-essential amino acids (NEAA, Life technologies) and then seeded in 12-well plates (Corning, Tewksbury, Mass.) with a density at 2×10^5 cells per well and 2 ml of culture medium in each well for overnight.
Stock solution of dihydronicotinamide riboside (NRH, GSK3008320A, GSK, RTP, NC) was prepared in ethanol at 100 mM (25.6 mg/ml) and stored at −20° C. Cells were treated with different concentrations of NRH for 3 hrs, washed twice with PBS containing 5 mM EDTA, and then subject to Nicotinamide adenine dinucleotide (NAD) measurement. In brief, acetonitrile (ACN) lysis buffer (Ammonium Acetate (50 mM) and 90% acetonitrile) was added to each well (200 μl/well) to lyse the cells at RT for 5-10 mins by gently rotating on a culture plate shaker at a low speed. Enzyme master mix (300 μM of 5-Amino-(3,4′-bipyridin)-6(1H)-one (Inamrinone) (Sigma-Aldrich), a substrate for ADP ribosyl cyclase (ADPR cyclase)) and 30 nM ADPR Cyclase (Sigma, St. Louis, Mo.), 7.5 μM of N-(2-fluoro-4-(methylsulfonyl)phenyl)-2-methyl-6-(thiazol-5-yl)isonicotinamide (a CD38 inhibitor) in 75 mM HEPES pH7 buffer (Life Technologies)) was added to the lysed cells (400 μl of enzyme master mix/well). Enzymatic reaction was incubated at RT for ˜30 min. At the end of incubation, the supernatant (200 μl) of the reaction solution from each well was transferred to each well of a 96-well plate and absorbance was read twice in the 96-well plate at 405 nm using a plate reader (Spectra Maxplus, Molecular Devices, Sunnyvale, Calif.). A mixture of enzyme master mix and ACN extraction solution at 2:1 ratio was used as a blank reference. NAD (Sigma) was used as a positive control.
HaCaT cells were grown as described in example 23 in the regular cell culture DMEM medium as described earlier or in the Epilife medium without nacinamide (Life Technologies). Cells were treated with different concentrations of NRH or niacinamide (NIA, DSM nutritional products) for 3 hrs, washed twice with PBS containing 5 mM EDTA, and then subject to Nicotinamide adenine dinucleotide (NAD) measurement as described in example 23. A mixture of enzyme master mix and ACN extraction solution at 2:1 ratio for a blank reference. NAD (Sigma) was used as a positive control. […] Both the CD38 inhibitor and Niacinamide increased NAD in the HaCaT cells cultured in the Vit B3 depleted culture medium, and the induction of NAD by niacinamide was dose-dependent (solid bars). However, the induction of NAD by niacinamide (highest at ˜1.5 fold) was low compared to those by NRH. Therefore, NRH is a stronger NAD inducer compared to a CD38 inhibitor or Niacinamide.
(§1) HaCaT cells were grown in regular culture media as described in example 1 and seeded in 12-well plates with density at 2×10^5 cells per well and 1 ml of culture medium in each well. NRH stock solution was prepared in ethanol at 100 mM (25.6 mg/ml) and stored at −20° C. Stock solutions of NRH esters were made at 50 mM in DMSO (see FIG. 9B for compound info). Cells were treated with NRH esters and NRH at 150 μM for 6 and 16 hrs, washed twice with PB S containing 5 mM EDTA, and then subject to Nicotinamide adenine dinucleotide (NAD) measurement as described in example 23.
HaCaT cells were grown in regular culture media as described above and seeded in 12-well plates with density at 2×10^5 cells per well and 1 ml of culture medium in each well. NRH stock solution was prepared in ethanol at 100 mM (25.6 mg/ml) and stored at −20° C. NRH (200 μM) was used as a positive control. Because of the possible solubility issue related to NRH monoC16, fatty acid-free bovine serum albumin (defatted BSA, Sigma) was used as a carrier for the compound. NRH monoC16 stock solution (100×) was complexed with defatted BSA ([…]) prior to the treatment, resulting in a NRH monoC16 stock solution (10 ×). […]

[3] = test system: HaCaT cells; assay: H2O2-induced reactive oxygen species (ROS) in HaCaT cells (CellROX deep red); format: cell-based, human; conditions: 3 hr pre-incubation then 250 μM H2O2, Hydroxyterosol 0.005%, niacinamide 4.5 mM, NRH several concentrations
Description: HaCaT cells were grown as described in example 23 and were seeded in 96-well plates (Nunc™ black with optical bottom, Thermo Fisher Scientific, Inc., Waltham, Mass.) with a density at 2×10^4 cells per well and 100 μl medium in each well, and grown overnight before treatments. Stock solutions of NRH and other test compounds were prepared and diluted to 2× of final treatment concentrations in DMEM medium in 96-well storage plate as indicated in the FIG. 11. HaCaT Cells were treated in triplicates by adding 100 μl of diluted solutions of test compounds (2×) to each well containing 100 μl medium already. Cells were incubated in the presence of test compounds for 3 hrs. At the end of 3 hr incubation, cells were washed once with 200 μl DPBS with Ca^++ and Mg^++ (Life Technologies) and then fed with 100 μl DMEM medium each well containing H2O2 at 250 μM (as a ROS (reactive oxygen species) inducer, Sigma). After 30 min incubation, cells were washed once with 200 μl DPBS with Ca^++ and Mg^++ and CellROX deep red reagent (2.5 mM stock solution, Life Technologies) was added to the medium to a final concentration of 5 μM. After 1 hr incubation at 37° C., 5% CO2, Cells were washed for 3 times with DPBS, fluorescence signal was read at Ex. 640 nm and Em. 665 nm in Biotek Synergy H4 microplate reader (BioTek, Winooski, Vt.). Untreated cells were served as controls (normalized to 1). All the treated samples were normalized to the untreated control.

[4] = test system: Reconstructed human epidermis (EpiDerm, EPI-200); assay: UVB-induced inflammation mediators in reconstructed epidermal equivalents; format: cell-based; conditions: topical 1 hr pre-treatment, NRH 0.1% or niacinamide 3%, UVB 150 mJ/cm^2, media 6 hr post irradiation
Source text: Solar Ultraviolet (UV) light exposure on skin causes photoaging, sunburn, DNA damages and carcinogenesis. UV radiation (UVR) also results in inflammation, which can be measured in vitro by pro-inflammatory mediators, e.g., TNF-α, IL-8. The in vitro reconstructed human epidermis (RHE) model is used to evaluate the anti-inflammatory effect of NRH.
Reconstructed human epidermis (EpiDerm, EPI-200, made of normal human epidermal keratinocytes, MatTek, Ashland, Mass.), were placed into media (EPI-100-ASY, 1.0 ml/well of 6-well plates) and incubated overnight at 37° C./5% CO2. The media was replenished with fresh culture media prior to study. NRH at 0.1% and niacinamide at 3% in vehicle (50% H2O/35% ethanol/15% propylene glycol, v/v/v) were applied topically at 6 μl and then gently spread onto the skin equivalents (˜20 rotations) using the rubber side of a plunger of 1 ml syringe. Vehicle was served as an untreated control. After 1 hr pre-treatment with NRH, niacinamide, or vehicle control, the EpiDerm tissues were transferred to a sterile 6-well plate containing 1 ml of DPBS per well and then exposed to UVB at 150 mJ/cm^2. The Newport Solar Simulator System (Power unit 69920, and Lamp 91192-1000, Newport Corporate, Irvine, Calif.) was used as the UVB emitter to achieve a UVB irradiation of 150 mJ/cm^2. Measurement of the irradiation was taken using an ILT-1400 Handheld, Portable Radiometer/Photometer (International Light Technologies, Inc., Peabody, Mass.) with a UVB detector (SEL240/T2ACT5, 235-307 nm, International Light Technologies, Inc.). After UVB irradiation, EpiDerm tissues were transferred back to the 6-well plate containing media and incubated at 37° C./5% CO2 for 6 hours. At the end of the incubation (6 hr post UVB irradiation), culture media were collected for the measurement of IL-8, and TNF-α concentration by MagPix (Millipore, HCYTOMAG-60K).

[5] = Gravimetric Vapor Sorption (GVS); format: physicochemical; conditions: 90% RH, 25° C.
Description: Gravimetric Vapor Sorption (GVS): Samples were analyzed using a VTI corporation (now part of TA Instruments) SGA-100 with Cahn microbalance equipped with quartz sample and reference pans. Samples were dried in the SGA-100 under dry nitrogen for 5 hours at 25° C. followed by a moisture absorption step ramp from 5% relative humidity (RH) to 95% or 90% RH followed by a desorption step ramp back to 5% or 10% RH (all steps at 25° C.). The samples were held at each % RH step for 4 hours.

[6] = Precipitation on addition of stock solution to cell culture media; format: physicochemical
Description: as §1
HaCaT cells were grown in regular culture media as described above and seeded in 12-well plates with density at 2×10^5 cells per well and 1 ml of culture medium in each well. NRH stock solution was prepared in ethanol at 100 mM (25.6 mg/ml) and stored at −20° C. NRH (200 μM) was used as a positive control. Because of the possible solubility issue related to NRH monoC16, fatty acid-free bovine serum albumin (defatted BSA, Sigma) was used as a carrier for the compound. NRH monoC16 stock solution (100×) was complexed with defatted BSA ([…]) prior to the treatment, resulting in a NRH monoC16 stock solution (10 ×). NRH monoC16 was then added to the culture media giving a final BSA concentration of 100 μM. […] Defatted BSA was also added to the control samples at a final concentration of 100 μM. […]

[7] = HaCaT in Vit B3 depleted culture medium, 3 hrs

## TNF-α
[1]
  COX-2 gene expression: induced COX-2 gene expression

## NC(=O)c1cccnc1 [Niacinamide, pyridine-3-carboxamide, reference compound]
[2]; HaCaT in DMEM medium with Vit B3, highest tested doses, 3 hrs
  NAD elevation: did not lead to NAD elevation
[2]; [7]
  NAD level: increased NAD
  dose dependence of induction of NAD: dose-dependent
  induction of NAD (highest): ~1.5 fold
[3]
  H2O2-induced ROS: did not inhibit
[4]
  UVB-induced IL-8: not
  UVB-induced TNF-α: not
[4]; listed as niacinamide
  UVB-induced IL-8: did not inhibit
  UVB-induced TNF-α: did not inhibit

## CCCCCCCCCCCCCCCC(=O)OC[C@H]1O[C@@H](N2C=CCC(C(N)=O)=C2)[C@H](O)[C@@H]1O [NRH monoC16]
[2]; HaCaT, 150 μM, 6 and 16 hrs
  NAD boosting activity: higher NAD boosting activity compared to all the other tested NR esters
[2]; HaCaT, defatted BSA carrier
  activity after 24 hr compared with 6 hr treatment: a higher activity was observed
[2]; HaCaT, different concentrations, defatted BSA carrier (100 μM), 6 and 24 hrs
  NAD levels: increases NAD levels in a dose dependent manner
[2]; HaCaT, same concentrations, defatted BSA carrier
  NAD boosting activity relative to NRH: slightly lower than that of NRH
[5]
  GVS weight gain from the dried state: approximately 7%
[6]; 50 mM DMSO stock added to culture media, 150 μM
  precipitation when stock solution added to the media: noticeable precipitations occurred
[6]; stock complexed with defatted BSA, final BSA 100 μM
  precipitation in culture media: no precipitation was observed
